Test results as given in patent US11453669B2, “Polycyclic pyridone derivative” (Shionogi & Co., Ltd., priority 2018, dated 2022).
Read-outs that look alike come from different tables or passages of the source.

Experiments:
[1] = molecular target: T1, Voltage gated sodium channel (Nav1.5 channel) encoded by SCN5A gene (Homo sapiens, UniProt Q14524); test: Nav test (QPatch whole cell patch clamp); format: cell-based; settings: HEK cells expressing Nav1.5, applied 5 minutes or more, room temperature
T1 construct: expressed in transfected cells; host or cells: HEK cells
T1 sequence (Q14524 whole entry): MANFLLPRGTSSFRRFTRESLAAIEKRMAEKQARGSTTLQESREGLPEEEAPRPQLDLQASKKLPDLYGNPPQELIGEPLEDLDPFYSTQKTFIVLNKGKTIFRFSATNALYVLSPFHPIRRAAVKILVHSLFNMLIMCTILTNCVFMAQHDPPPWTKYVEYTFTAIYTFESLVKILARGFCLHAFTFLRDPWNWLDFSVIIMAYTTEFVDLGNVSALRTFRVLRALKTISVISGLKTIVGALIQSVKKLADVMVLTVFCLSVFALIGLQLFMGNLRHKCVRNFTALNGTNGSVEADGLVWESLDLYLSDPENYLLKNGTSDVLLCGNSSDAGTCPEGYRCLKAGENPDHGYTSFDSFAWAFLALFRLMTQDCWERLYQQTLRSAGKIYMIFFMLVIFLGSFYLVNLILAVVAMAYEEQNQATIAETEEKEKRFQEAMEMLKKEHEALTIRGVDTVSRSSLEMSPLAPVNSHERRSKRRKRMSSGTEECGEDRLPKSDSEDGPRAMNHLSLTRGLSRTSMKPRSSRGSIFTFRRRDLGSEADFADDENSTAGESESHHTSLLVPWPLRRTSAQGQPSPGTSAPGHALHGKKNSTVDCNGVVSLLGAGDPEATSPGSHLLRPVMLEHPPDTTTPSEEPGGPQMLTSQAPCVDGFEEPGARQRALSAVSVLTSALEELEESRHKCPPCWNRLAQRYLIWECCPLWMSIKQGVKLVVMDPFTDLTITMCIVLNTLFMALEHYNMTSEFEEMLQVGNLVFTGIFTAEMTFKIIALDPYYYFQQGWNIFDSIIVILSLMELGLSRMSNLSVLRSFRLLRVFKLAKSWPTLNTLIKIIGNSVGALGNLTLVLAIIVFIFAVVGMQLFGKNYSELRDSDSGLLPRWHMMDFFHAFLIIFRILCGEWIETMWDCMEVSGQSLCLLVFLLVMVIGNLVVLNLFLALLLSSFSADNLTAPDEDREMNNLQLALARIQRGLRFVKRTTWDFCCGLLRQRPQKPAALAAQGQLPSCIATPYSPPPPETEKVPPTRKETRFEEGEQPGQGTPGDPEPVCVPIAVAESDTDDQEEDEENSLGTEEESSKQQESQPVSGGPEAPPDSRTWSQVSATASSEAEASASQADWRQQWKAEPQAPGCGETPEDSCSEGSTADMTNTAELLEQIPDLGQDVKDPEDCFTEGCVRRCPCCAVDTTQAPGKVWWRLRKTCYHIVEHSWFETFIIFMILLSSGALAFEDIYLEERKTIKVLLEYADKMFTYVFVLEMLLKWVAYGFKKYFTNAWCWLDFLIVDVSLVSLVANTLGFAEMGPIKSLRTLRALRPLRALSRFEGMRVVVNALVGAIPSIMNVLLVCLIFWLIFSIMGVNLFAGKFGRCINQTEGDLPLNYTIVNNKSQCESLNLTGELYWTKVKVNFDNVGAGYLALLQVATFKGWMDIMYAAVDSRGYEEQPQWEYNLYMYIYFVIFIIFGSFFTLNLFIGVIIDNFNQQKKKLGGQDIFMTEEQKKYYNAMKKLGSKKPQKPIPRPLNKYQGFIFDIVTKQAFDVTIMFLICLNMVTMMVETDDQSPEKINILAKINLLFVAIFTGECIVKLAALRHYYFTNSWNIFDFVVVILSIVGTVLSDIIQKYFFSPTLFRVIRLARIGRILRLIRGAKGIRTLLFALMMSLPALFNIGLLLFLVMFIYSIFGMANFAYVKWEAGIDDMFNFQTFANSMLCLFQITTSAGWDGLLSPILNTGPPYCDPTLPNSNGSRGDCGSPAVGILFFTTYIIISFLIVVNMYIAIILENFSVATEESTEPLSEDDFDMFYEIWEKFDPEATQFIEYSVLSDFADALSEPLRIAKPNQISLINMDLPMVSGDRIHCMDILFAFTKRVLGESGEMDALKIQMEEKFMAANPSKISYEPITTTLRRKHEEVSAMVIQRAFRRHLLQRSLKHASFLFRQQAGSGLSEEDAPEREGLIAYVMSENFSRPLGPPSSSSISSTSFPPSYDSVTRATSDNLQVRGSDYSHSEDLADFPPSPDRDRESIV
Method: A cell was retained at a membrane potential of −100 mV by whole cell patch clamp method using a fully automated patch clamp system (QPatch; Sophion Bioscience A/S), and INa induced by depolarization pulse stimulation at −10 mV for 20 ms was recorded. […] The extracellular solution in which the medium and the compound of the present invention had been dissolved at each objective concentration was applied to the cell for 5 minutes or more under conditions of room temperature.

[2] = test system: HIV mutant strain 3 (E92Q/E138K/G140S/Q148H); test: Resistance evaluation test, HeLa-CD4 reporter assay, mutant strain 3; format: cell-based; settings: FC=EC50 of the mutant strain/EC50 of the wild strain, HeLa-CD4 cells
Method: (§1) Serial dilutions of a test sample were prepared in a 96-well microplate (50 μL/well). 2.5×10^5 cells/mL of a HeLa-CD4 cell suspension was dispensed at 100 μL/well to the plate containing the test sample. Then, an HIV virus solution (wild strain and mutant strain) was dispensed at 50 μL/well. The plate was mixed with a plate mixer and cultured for 3 days in a CO2 incubator. The culture supernatant in each well was removed by suction. A cell lysis buffer in a reporter assay kit was dispensed at 100 μL/well, and the plate was frozen in a freezer (−80° C.). The plate frozen in a freezer was thawed at room temperature, then mixed with a plate mixer, and centrifuged at 1,200 rpm for 5 minutes. The supernatant of each well was dispensed at 20 μL/well to a 96-well microplate (BLACK). A chemiluminescent in the reporter assay kit reagent was dispensed at 100 μL/well and reacted at room temperature for approximately 1 hour. Then, luminescence intensity was measured using MicroBeta TRILUX. […] FC=EC50 of the mutant strain/EC50 of the wild strain (Results) The FC for mutant strain 1 (E138K/G140S/Q148H/N155H) and the FC for mutant strain 2 (E92Q/E138T/G140S/Q148H) are shown in the table.

[3] = test system: HIV mutant strain 4 (T97A/E138T/G140S/Q148H); test: Resistance evaluation test, HeLa-CD4 reporter assay, mutant strain 4; format: cell-based; settings: FC=EC50 of the mutant strain/EC50 of the wild strain, HeLa-CD4 cells
Method: as §1

[4] = test system: HIV; test: Anti-HIV activity (MT-4 cells, MTT); format: cell-based; settings: read-out: EC50_nM (50% HIV inhibitory concentration)
Method: Serial dilutions of a test sample were prepared in a 96-well microplate (50 μL/well). 2.5×10^5 cells/mL of an MT-4 cell suspension was dispensed at 100 μL/well to the plate containing the test sample. Then, an HIV virus solution was dispensed at 50 μL/well. The plate was mixed with a plate mixer and cultured for 4 days in a CO2 incubator. An MTT (3-(4,5-dimethylthiazol-2-yl)-2,5-diphenyltetrazolium bromide) solution was dispensed at 30 μL/well. The plate was reacted for 1 hour in a CO2 incubator. 150 μL of the supernatant was removed from each well so as not to take up the cells. 150 μL of a cell lysis solution was added to each well and well mixed with a plate mixer until the cells were completely lysed. The absorbance of the mixed plate was measured at two wavelengths of 560 nm and 690 nm using a microplate reader.

[5] = test system: HIV mutant strain 1 (E138K/G140S/Q148H/N155H); format: cell-based; settings: FC=EC50 of the mutant strain/EC50 of the wild strain, HeLa-CD4 cells
Method: (§2) Serial dilutions of a test sample were prepared in a 96-well microplate (50 μL/well). 2.5×10^5 cells/mL of a HeLa-CD4 cell suspension was dispensed at 100 μL/well to the plate containing the test sample. Then, an HIV virus solution (wild strain and mutant strain) was dispensed at 50 μL/well. The plate was mixed with a plate mixer and cultured for 3 days in a CO2 incubator. The culture supernatant in each well was removed by suction. A cell lysis buffer in a reporter assay kit was dispensed at 100 μL/well, and the plate was frozen in a freezer (−80° C.). The plate frozen in a freezer was thawed at room temperature, then mixed with a plate mixer, and centrifuged at 1,200 rpm for 5 minutes. The supernatant of each well was dispensed at 20 μL/well to a 96-well microplate (BLACK). A chemiluminescent in the reporter assay kit reagent was dispensed at 100 μL/well and reacted at room temperature for approximately 1 hour. Then, luminescence intensity was measured using MicroBeta TRILUX.

[6] = test system: HIV mutant strain 2 (E92Q/E138T/G140S/Q148H); format: cell-based; settings: FC=EC50 of the mutant strain/EC50 of the wild strain, HeLa-CD4 cells
Method: as §2

[7] = format: in vitro ADME; settings: human, 30 min, 0.5 μmol/L, pH 7.4
Method: Using commercially available pooled human liver microsomes, a compound of the present invention was reacted for a constant time, and a remaining rate was calculated by comparing a reacted sample and an unreacted sample, thereby, a degree at which the compound of the present invention was metabolized in liver was assessed.
A reaction was performed (oxidative reaction) at 37° C. for 0 minute or 30 minutes in the presence of 1 mmol/L NADPH in 0.2 mL of a buffer solution (50 mmol/L Tris-HCl pH 7.4, 150 mmol/L potassium chloride, 10 mmol/L magnesium chloride) containing 0.5 mg protein/mL of human liver microsomes. After the reaction, 50 μL of the reaction solution was added to 100 μL of a solution of methanol/acetonitrile=1/1 (v/v), and the mixture was mixed and centrifuged at 3000 rpm for 15 minutes. The compound of the present invention in the centrifugation supernatant was quantified by LC/MS/MS or solid-phase extraction (SPE)/MS. The amount of the compound of the present invention remaining after the reaction was calculated with the amount of the compound at 0 minutes of the reaction defined as 100%.

[8] = molecular target: T2, CYP3A4 (Homo sapiens, UniProt P08684); test: CYP3A4 (MDZ) MBI test; format: in vitro ADME; settings: pooled human liver microsomes, midazolam 1-hydroxylation, IC 0 min preincubation/IC 30-min preincubation
T2 construct: from tissue; host or cells: pooled human liver microsomes
T2 sequence (P08684 whole entry): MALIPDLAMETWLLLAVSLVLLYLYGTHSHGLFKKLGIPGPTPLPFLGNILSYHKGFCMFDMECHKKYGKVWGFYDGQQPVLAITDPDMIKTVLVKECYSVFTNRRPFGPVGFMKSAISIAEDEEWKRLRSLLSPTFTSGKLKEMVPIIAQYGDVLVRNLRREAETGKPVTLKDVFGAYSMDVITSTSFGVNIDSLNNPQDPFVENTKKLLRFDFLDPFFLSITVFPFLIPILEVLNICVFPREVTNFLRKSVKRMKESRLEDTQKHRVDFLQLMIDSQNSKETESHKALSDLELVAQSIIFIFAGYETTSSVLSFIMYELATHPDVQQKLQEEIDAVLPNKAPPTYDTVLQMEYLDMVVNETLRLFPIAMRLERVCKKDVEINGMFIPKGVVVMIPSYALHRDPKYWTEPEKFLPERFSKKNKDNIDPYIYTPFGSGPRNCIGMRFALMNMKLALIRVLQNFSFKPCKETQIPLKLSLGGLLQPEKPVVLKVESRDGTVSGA
Method: This test as to the inhibition of CYP3A4 by the compound of the present invention is to evaluate mechanism based inhibition (MBI) ability from enhancement in inhibitory effect, caused by a metabolism reaction, of the compound of the present invention. CYP3A4 inhibition was evaluated using pooled human liver microsomes by 1-hydroxylation reaction of midazolam (MDZ) as a marker reaction. […]
A part of pre-reaction solution was transferred to another 96-well plate, and 1/10 diluted by K-Pi buffer solution containing a substrate. […] After each plate where the marker reaction has been performed was centrifuged at 3000 rpm for 15 minutes, 1-hydroxymidazolam in the centrifugation supernatant was quantified by LC/MS/MS.
Only a solvent DMSO used for dissolving the compound was added to the reaction solution instead of the compound of the present invention, and the mixture was used as a control (100%). Remaining activity (%) was calculated at the time of the addition of the compound of the present invention at each concentration, and IC value was calculated by inverse estimation based on a logistic model using the concentrations and the rates of inhibition. A shifted IC value is calculated from IC from the 0 min preincubation/IC from the 30-min preincubation. […]

[9] = test system: HIV; test: Anti-HIV activity evaluation test in the presence of human serum protein (MT-4 cells); format: cell-based; settings: PS=4×(EC50 with 25% human serum protein/EC50 without), 100% extrapolated value
Method: Serial dilutions of a test sample were prepared in a 96-well microplate (50 μL/well). A human serum protein solution (human serum protein concentration: 50%) was dispensed into a 96-well microplate containing a test sample in an amount of 100 μL/well, and left standing at room temperature for 1 hour. 100 μL/well of the culture solution was dispensed to a plate without serum. 3.0×10^5 cells/well of MT-4 cells and 3 μL/well of HIV virus solution were mixed for the required number of wells and the mixture was reacted at 37° C. for 1 hour. After the reaction, the cell suspension was centrifuged and the supernatant discarded. The infected cells were dispersed in a culture solution for the required number of wells at 50 μL/well, and 50 μL/well was dispensed to a 96-well microplate containing the test sample and human serum protein (human serum protein final concentration: 25%). The plate was mixed with a plate mixer and cultured for 4 days in a CO2 incubator. An MTT (3-(4,5-dimethylthiazol-2-yl)-2,5-diphenyltetrazolium bromide) solution was dispensed at 30 μL/well. The plate was reacted for 1 hour in a CO2 incubator. 150 μL of the supernatant was removed from each well so as not to take up the cells. […] The absorbance of the mixed plate was measured at two wavelengths of 560 nm and 690 nm using a microplate reader. […]

[10] = test system: HIV; test: Anti-HIV activity evaluation test using PBMC of a healthy subject; format: cell-based; settings: Human immunodeficiency virus 1, 96 h, read-out: 90% HIV inhibitory concentration (EC90); PHA-stimulated PBMC, cultured 4 days, reverse transcriptase activity
Method: Serial dilutions of a test sample were prepared in a 96-well microplate (50 μL/well). PBMC stimulated with 1.0×10^5 cells/well of Phytohemagglutinin (PHA) and an HIV virus solution were mixed for the required number of wells, and the mixture was reacted at 37° C. for 1 hour. After the reaction, the cell suspension was centrifuged and the supernatant discarded. The infected cells were dispersed in a culture solution for the required number of wells at 150 μL/well, and 150 μL/well was dispensed to a 96-well microplate containing a test sample. The plate was mixed with a plate mixer and cultured for 4 days in a C02 incubator. The reverse transcriptase activity in the culture solution was measured.

[11] = Human immunodeficiency virus 1, MT4, 96 h

| SMILES | ratio of maximum peak current (INa) with compound relative to medium [1] [%] | FC for mutant strain 3 [2] | FC for mutant strain 4 [3] | EC50 ([4]; MT-4 cells, cultured 4 days, MTT) [nM] | FC (fold change) for mutant strain 1 [5] | FC (fold change) for mutant strain 2 [6] | EC50 [4, 11] [nM] | residual rate [7] | CYP3A4 MBI grade (shifted IC) [8] | potency shift (PS) in the presence of human serum protein [9] | EC90 [10] [nM] |
| --- | --- | --- | --- | --- | --- | --- | --- | --- | --- | --- | --- |
| CCN1C(=O)c2c(O)c(=O)c(-c3nnc(Cc4ccc(F)cc4F)s3)cn2N2CCCC[C@@H]12 [Compound I-002] | 102 | 7.7 | 3.2 | 3.2 | 5.6 | 7.5 | – | – | – | – | – |
| CCN1C(=O)c2c(O)c(=O)c(-c3nnc(Cc4ccc(F)cc4F)s3)cn2N2C[C@@H]3CC[C@@H](C3)[C@@H]12 [II-051] | – | – | – | – | 2.5 | 3.9 | 0.66 | 92.9 | (−) (shifted IC of 1.0 or less is graded as negative (−)) | – | – |
| CCN1C(=O)c2c(O)c(=O)c(-c3nnc(Cc4c(F)cc(F)cc4F)s3)cn2N2[C@H](COC)CC[C@@H]12 [II-037] | 88.8 | – | – | – | 10 | 11 | 0.62 | 93.4 | (−) (shifted IC of 1.0 or less is graded as negative (−)) | – | – |
| CCN1C(=O)c2c(O)c(=O)c(-c3nnc(Cc4ccc(F)cc4F)s3)cn2N2C[C@@H](C)C[C@@H]12 [II-023] | 93.3 | – | – | – | 4.1 | 2.5 | 1.2 | 98.3 | – | 56 | 1.7 |
| CCN1C(=O)c2c(O)c(=O)c(-c3nnc(Cc4c(F)cc(F)cc4F)s3)cn2N2CCCC[C@@H]12 [Compound I-008] | 103 | – | – | – | 3.8 | 6.9 | 1.6 | 97.7 | – | 116 | 1 |
